Test results reported in US20260144769A1, “4-PHENYLBUTYRATE RESTORED GABA UPTAKE AND REDUCED SEIZURES IN SLC6A1 VARIANT-MEDIATED DISORDERS” (Vanderbilt University, priority 2022, published 2026).

Target: T1, GAT-1 V125M (Rattus norvegicus, UniProt P23978, V125M)
T1 construct: The coding region of rGAT-1 was inserted into pEYFP-C1 (Clontech, Palo Alto, CA); expressed in transfected cells; host or cells: HEK293T cells (A3); astrocytes from corrected human iPSCs (A23)
Test: 3H GABA uptake, HEK293T, mutant cDNA alone ("homozygous")
Assay type: cell-based
Conditions: PBA 2 mM, 24 hrs
Procedure: GABA uptake activity was measured by the high-throughput 3H radio-labeling GABA uptake on a liquid scintillator with QuantaSmart. […] HEK293T cells were transfected with the wildtype or the mutant GAT-1^YFP cDNAs alone for 48 hr. […] HEK293T cells were transfected with the wildtype GAT-1^YFP alone or in mixture of the wildtype or the mutant cDNAs for 48 hr. In the mixed condition, the ratio of the wildtype GAT-1 with pcDNA or the mutant cDNAs are 1:1 with the total cDNA amount of 0.5 μg. […] Both wt and the mutant were normalized to its own DMSO treated conditions. 966 stands for the wildtype treated with CI-966 (50 μM) while 711 stands for NNC-711 (35 μM). (N=4-7 different transfections. In FIG. 4A and FIG. 4B, *P<0.05, **P<0.01, ***p<0.001 vs. wt 0. In FIG. C and FIG. 4D, *P<0.05, **P<0.01, ***p<0.001 vs. its own DMSO treated. In FIG. 4C, ns stands for no significance. One-way analysis of variance (ANOVA) and Newman-Keuls test. Values were expressed as mean±S.E.M.
The plasmid cDNA encoding enhanced yellow fluorescent protein (EYFP)-tagged rat GAT-1 has been previously described. The coding region of rGAT-1 was inserted into pEYFP-C1 (Clontech, Palo Alto, CA). QuikChange Site-directed Mutagenesis kit was utilized to introduce the GAT-1 variants into a wildtype GAT-1 plasmid. The product was then amplified via polymerase chain reaction, transformed using DH5a competent cells, and plated. A clone was chosen and grown overnight. All the GAT-1 variants were confirmed by DNA sequencing. Both the wildtype and the variant cDNAs were prepared with Qiagen Maxiprep kit.
Human embryonic kidney cells were cultured as monolayers in 100 mm^2 dishes. Cells were cultured in Dulbecco's Modified Eagle's Medium supplemented with 10% FBS and 1% penicillin/streptomycin in 37° C. in 5% CO2/95% air. Cells were maintained in culture medium until appropriate confluency for experimentation.
Briefly, cells were cultured in […] dishes for 3 days before the GABA uptake experiment in DMEM with 10% fetal bovine serum and 1% penicillin/streptomycin. The cells were then transfected with equal amounts of the wildtype or the mutant GAT-1 cDNAs (1 μg) for each condition at 24 hrs or 48 hrs after plating. GABA uptake assay was carried out 48 hrs after transfection. The cells were incubated with preincubation solution for 15 min and then incubated with preincubation solution containing 1 μci/mL 3H GABA and 10 μM unlabeled GABA for 30 min at room temperature. After washing, the cells were lysed with 0.25 N NaOH for 1 hr. Glacial acetic acid was added, and lysates were then determined on a liquid scintillator with QuantaSmart. The flux of GABA (pmol/μg/min) was averaged with at least triplets for each condition at each transfection. The average counting was taken as n=1. The untransfected condition was taken as a baseline that was subtracted from both the wildtype and the mutant conditions. The pmol/μg/min in the mutant was then normalized to the wildtype from each experiment, which was arbitrarily taken as 100%. The protocols for GABA reuptake assay in cultured mouse astrocytes, neuron or iPSC derived cells were modified from the GABA uptake protocol on HEK 293T cells. GAT-1 inhibitors CL-966 and NNC-711 were applied each time to make sure the radioactive counts were specific.
The working solution was stored at 4° C.

## O=C(O)CCCc1ccccc1 [PBA, 4-phenylbutyric acid]
  GABA uptake normalized to its own DMSO treated condition: 1.378±0.056
